Consider two compounds from patent publication US10377781B2, “Alkylidene phosphonate esters as p-glycoprotein inducers” (Council of Scientific & Industrial Research, priority 2014, dated 2019).

Series [1] can be described thus: Thermodynamic equilibrium solubility. The note with it: for solubility: 25 °C, thermodynamic from solid. Format: physicochemical. As for the experimental part: The compounds were first dissolved in methanol to prepare stock solutions (100 and 1000 μg/mL). Different concentrations of stock solutions were pipetted into the 96-well plates and the solvent was evaporated to ensure that solid drug was present in the beginning of the experiment. […] The plates were kept overnight for equilibration of drug in medium. Later, the plates were centrifuged at 3000 rpm for 15 min (Jouan centrifuge BR4i). Supernatant (50 μl) was pipetted into UV 96-well plates (Corning® 96 Well Clear Flat Bottom UV-Transparent Microplate) for analyses with plate reader (SpectraMax Plus384) at λmax of 350 nm. The analyses were performed in triplicate for each compound. The solubility curve of concentration (ng/mL) vs absorbance was plotted to find out saturation point and the corresponding concentration was noted.

Another series deals with HMG-Co A reductase. The note with it: HepG2 (hepatocellular carcinoma) cells; read-out: IC50, reduction of HMG-Co A reductase activity; cited from earlier work.
The target in a further series is T1, mouse PXR (Mus musculus, UniProt O54915).
T1 sequence (O54915 1-431): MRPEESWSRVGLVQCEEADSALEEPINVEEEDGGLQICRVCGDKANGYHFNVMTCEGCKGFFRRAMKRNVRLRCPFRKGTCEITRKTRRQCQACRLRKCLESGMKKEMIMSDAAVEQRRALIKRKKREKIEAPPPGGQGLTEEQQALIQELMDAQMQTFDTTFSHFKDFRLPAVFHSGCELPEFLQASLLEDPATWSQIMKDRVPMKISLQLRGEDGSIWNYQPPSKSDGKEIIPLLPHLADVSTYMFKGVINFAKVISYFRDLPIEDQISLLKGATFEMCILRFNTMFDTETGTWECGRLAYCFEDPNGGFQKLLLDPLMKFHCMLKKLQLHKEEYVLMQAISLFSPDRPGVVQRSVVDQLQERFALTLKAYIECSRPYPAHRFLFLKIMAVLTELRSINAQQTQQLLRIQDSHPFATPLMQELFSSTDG
The note with it: cited from earlier work.

The subject of series [2] is P-glycoprotein (Pgp) in LS-180 cells. Kind of series: Pgp-induction assay, rhodamine123 (Rh123) cell exclusion method. The series is classed as cell-based. The note with it: for EC50: LS180 cells treated 48 h, Rh123 fluorescence vs concentration. As for the experimental part:
All synthesized compounds were screened for their ability to induce Pgp using rhodamine123 (Rh123) cell exclusion method. In this method, the Pgp function was evaluated in terms of rhodamine 123 (Rh123) accumulations and efflux. Briefly, the protocol used is as follows: Colorectal LS-180 cells [obtained from ECACC (European Collection of Cell Cultures) catalogue number: 87021202; passage number 52] were seeded at a density of 2×10^4 per well of 96 well plate and were allowed to grow for next 24 h. Cells were further incubated with the test compounds, and were diluted to a final concentration of 100 nM and rifampicin (standard) to a final concentration of 10 μM in complete media for 48 h. The final concentration of DMSO was kept at 0.1%. Drugs were removed and cells were incubated with HANKS buffer for 40 minutes before further incubation with HANKS buffer (containing 10 μM of Rh123 as a Pgp substrate) for 90 minutes. At the end of Rh123 treatment cells were washed four times with cold PBS followed by cell lysis for 1 h by using 200 μl of lysis buffer (0.1% Triton X-100 and 0.2 N NaOH). A total of 100 μl of lysate was used for reading fluorescence of Rh123 at 485 nm/529 nm. Samples were normalized by dividing fluorescence of each sample with total protein present in the lysate. For EC50 determination, different concentrations of compound were used to treat LS180 cells for 48 h. The EC50 value was determined by plotting fluoroscence of Rh123 against concentration of compound.

A further series addresses T2, rabbit PXR (Oryctolagus cuniculus, UniProt Q9TU02).
T2 sequence (Q9TU02 1-411): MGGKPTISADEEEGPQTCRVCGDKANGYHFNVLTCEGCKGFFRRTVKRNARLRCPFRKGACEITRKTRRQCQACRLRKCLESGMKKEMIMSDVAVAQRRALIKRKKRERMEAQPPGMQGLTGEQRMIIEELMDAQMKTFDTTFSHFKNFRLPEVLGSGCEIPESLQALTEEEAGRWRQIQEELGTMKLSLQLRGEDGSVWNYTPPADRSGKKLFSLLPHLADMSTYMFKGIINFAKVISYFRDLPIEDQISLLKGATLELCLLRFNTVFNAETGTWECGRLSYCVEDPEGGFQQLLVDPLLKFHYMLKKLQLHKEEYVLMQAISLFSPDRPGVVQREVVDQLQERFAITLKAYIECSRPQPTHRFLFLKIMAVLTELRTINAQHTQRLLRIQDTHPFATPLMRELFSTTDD
The note with it: read-out: EC50, activation of rabbit PXR; cited from earlier work.

In another series the target is T3, rat PXR (Rattus norvegicus, UniProt Q9R1A7).
T3 sequence (Q9R1A7 1-431): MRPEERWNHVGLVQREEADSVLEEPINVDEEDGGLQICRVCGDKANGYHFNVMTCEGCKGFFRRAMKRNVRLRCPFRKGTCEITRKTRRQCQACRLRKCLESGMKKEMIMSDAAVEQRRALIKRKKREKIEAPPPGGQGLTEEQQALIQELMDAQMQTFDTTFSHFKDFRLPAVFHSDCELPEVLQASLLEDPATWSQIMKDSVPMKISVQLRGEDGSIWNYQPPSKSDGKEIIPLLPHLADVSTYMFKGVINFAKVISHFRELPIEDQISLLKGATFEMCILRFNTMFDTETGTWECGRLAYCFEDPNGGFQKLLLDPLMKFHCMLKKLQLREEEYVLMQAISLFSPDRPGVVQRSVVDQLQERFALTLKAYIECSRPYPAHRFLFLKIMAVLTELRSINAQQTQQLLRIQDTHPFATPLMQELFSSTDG
The note with it: cited from earlier work.

The next series deals with CYP3A4. The note with it: rat hepatocytes; cited from earlier work.
Series [3] has as its system p-glycoprotein expression in LS-180 cells. The experiment in a line: Western blot analysis of Pgp expression. Format: cell-based. As for the experimental part: Protein was measured employing Bio-Rad protein assay kit using bovine serum albumin as standard. Proteins aliquots (70 μg) were resolved on SDS-PAGE and then electro transferred to PVDF membrane overnight at 4° C. at 30V. Nonspecific binding was blocked by incubation with 5% non-fat milk in Tris-buffered saline containing 0.1% Tween-20 (TBST) for 1 h at room temperature. The blots were probed with anti-Pgp antibody for 4 h and washed three times with TBST. Blot was then incubated with horseradish peroxidase conjugated antimouse secondary antibody for 1 h, washed again three times with TBST and signals detected using ECL plus chemiluminescence's kit on BioRad ChemiDoc XRS system.
Background: A western blot detects proteins with antibodies after separation by electrophoresis.

Values after ≈ are worked out from the molar mass of the structure shown. “Also recorded” adds a separate entry of the source. Where two headings read alike, the source gives them in different places.

A word on the solubility: it is how much of the substance goes into solution per volume. The term IC50 denotes the midpoint of a concentration-inhibition curve. The EC50 is the concentration at which the effect is half-maximal. For `CCOP(=O)(OCC)C(=Cc1cc(C(C)(C)C)c(O)c(C(C)(C)C)c1)P(=O)(OCC)OCC` [Compound 1a], the solubility in series [1] (water, 25±1° C., read-out: Solubility, Water) was 200 µg/mL (≈ 396 µM); in series [1] (phosphate buffer saline (PBS), aqueous buffer, read-out: Solubility, PBS), 200 µg/mL (≈ 396 µM); in series [1] (simulated gastric fluid (SGF), simulated gastric fluid, read-out: Solubility, SGF), 200 µg/mL (≈ 396 µM); in series [1] (simulated intestinal fluid (SIF), fassgf or other biorelevant, read-out: Solubility, SIF) it was 200 µg/mL (≈ 396 µM). In addition, on HMG-Co A reductase, the IC50 is 850 nM. In addition, the “activation of mouse PXR” value on mouse PXR is recorded as “very weak activator”. Besides, the 50% effective concentration (EC50) in series [2] is 2.04 nM; at rabbit PXR, approximately 700 nM. Also, the “activation of rat PXR” value on rat PXR was “very weak activator”. Further, in the series with CYP3A4, the CYP3A4 protein levels result is given as “increase CYP3A4 protein levels”.

As to `CCOP(=O)(OCC)C(=Cc1c2ccccc2cc2ccccc12)P(=O)(OCC)OCC` [Compound 1l, Tetraethyl 2-(anthracene-10-yl) ethene-1,1-diyldiphosphonate], in series [1] (phosphate buffer saline (PBS)), the “Solubility, PBS” value is more than 1500 µg/mL. Besides, the “Solubility, SGF” value in series [1] (simulated gastric fluid (SGF)) was more than 1500 µg/mL. Also, the “Solubility, SIF” value in series [1] (simulated intestinal fluid (SIF)) is more than 1500 µg/mL. In addition, the solubility in words entry in series [1] (water and biological fluids) is on record as “optimal solubility”. Further, the “Solubility, Water” value in series [1] (water, 25±1° C.) was 400 µg/mL (≈ 840 µM). The EC50 in series [2] was 0.9 nM. Further, the “Pgp induction as decrease in % intracellular levels of rhodamine 123” value in series [2] (LS-180 cells, test compounds 100 nM, 48 h) is listed as “decreased; also recorded: promising induction of p-glycoprotein”. In series [2] (Pgp induction EC50, LS180 cells), the “fold difference of EC50 versus SR12813 (1a)” value amounted to 2 fold. Moreover, in series [3], the “p-glycoprotein expression (Western blot)” value is recorded as “induces p-glycoprotein expression”.
